PubChem BioAssay AID1963966 (Molecular Pharmacology Branch, DTP, NCI, 2024)
“And” between values parts separate entries of the source, which are not always exact repeats. Equal values may be shown once.

Tested on: 935938-334-R-J1-PDC spheroids with HUVEC/MSC, viability
Assay: Anticancer human tumor 935938-334-R-J1-PDC patient-derived small intestine adenocarcinoma cell line growth inhibition [PI3K]
Details: for viability, T/C: stronger effect = lower value
Text: Combinatorial screen of targeted agents with the PI3K inhibitors inavolisib, alpelisib, duvelisib, and copanlisib in multi-cell type tumor spheroids
A high-throughput screen of multi-cell type tumor spheroids was designed to identify active combinations of targeted small molecules and PI3K pathway inhibitors. Complex spheroids include a stromal component modeled by human endothelial cells (HUVEC) and fibroblasts modeled by human mesenchymal stem cells (MSCs). The concentration ranges selected for each drug and investigational agent were based upon clinically achievable concentrations if the clinical Cmax of the agent was known.
Compounds. The drugs and investigational agents: inavolisib (NSC800729), alpelisib (NSC765974), duvelisib (NSC772469), copanlisib (NSC816437), ipatasertib (NSC767898), afuresertib (NSC778305), talazoparib (NSC767125), sapanisertib (NSC764658), selumetinib (NSC741078), tovorafenib (DAY101, NSC766906), vemurafenib (NSC761431), ravoxertinib (NSC781343), sotorasib (NSC818433), MRTX1133 (NSC 836407), abemaciclib (NSC 768073), palbociclib (NSC758247), venetoclax (NSC 766270), SY5609 (NSC837396), enzalutamide (NSC755605), and darolutamide (NSC825331), were obtained from the National Cancer Institute (NCI) Developmental Therapeutics Program Chemical Repository. The FDA-approved anticancer drug set is available from the NCI Developmental Therapeutics Program. […] The stock solutions were prepared in dimethyl sulfoxide (DMSO, Sigma-Aldrich, St. Louis, MO, cat. D2650) at 800-fold the tested concentration and stored at -70 degrees C prior to their use. All drugs and investigational agents were tested over a range starting from a high concentration at or near the clinical Cmax and decreasing in half-log increments. If the clinical Cmax for an agent had not been determined, the highest concentration tested was 10 microM.
Cell Culture. All cells were maintained in an incubator at 37 degrees C and 5% CO2 with 95% humidity. The PDC lines were cultured according to standard operating procedures established by the NCI PDMR (https://pdmr.cancer.gov/sops/default.htm). All PDCs were thawed and cultured in Matrigel-coated flasks prepared with a working solution of 1X Ham's F-12 nutrient mix, without supplementation (Invitrogen, Waltham, MA, cat. 11765054), 100 U/mL penicillin-streptomycin (Invitrogen, cat. 15140122), and 2.5% Matrigel (Corning Inc., Corning, NY, cat. 354248) for the first three passages. The 354836-022-R-J1-PDC, 475296-252-R-J1-PDC, and 997726-040-R-J2-PDC lines were cultured in 6A media, which includes advanced DMEM/F-12 (Thermo Fisher Scientific, cat. 12634028), 10 mM HEPES (Thermo Fisher Scientific, cat. 15630080), 1X GlutaMAX supplement (Thermo Fisher Scientific, cat. 35050061), 0.1 mg/mL primocin (InvivoGen, San Diego, CA, cat. ant-pm-2), 10% defined fetal bovine serum, heat inactivated (HyClone Laboratories Inc., Logan, UT, cat. SH30070.03HI), 50% L-WRN conditioned media (ATCC, cat. CRL-3276), 1.25 mM N-Acetyl-L-cysteine (Sigma-Aldrich, cat. A9165), 10 mM nicotinamide (Sigma-Aldrich, cat. N0636), 1X B-27 supplement (Thermo Fisher Scientific, cat. 17504044), 1X N-2 supplement (Thermo Fisher Scientific, cat. 17502048), and 10 microM Y-27632 dihydrochloride (Tocris Bioscience, Bristol, United Kingdom, cat. 1254). The 624824-186-R-J2-PDC line was cultured in 6C/Colon 1B media, which includes all 6A media components plus 50 ng/mL human EGF recombinant protein (Thermo Fisher Scientific, cat. PHG0311). […]

[1] = compound alone, run of 04/25/2023
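Further: compound exposure lasted seven days before viability was read.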
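Wherever viability, T/C is given: percent of vehicle DMSO treated spheroid viability so 100% = untreated.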

C#Cc1c(F)ccc2cc(O)cc(-c3ncc4c(N5CC6CCC(C5)N6)nc(OCC56CCCN5CC(F)C6)nc4c3F)c12 (stereo not given)
viability, T/C (compound 3.16 µM): 52.5% [middle of 4 runs] | viability, T/C (compound 10 µM): 43.6% [middle of 4 runs] | IC50 (curve of compound): 4.79 µM [middle of 4 runs]

C=CC(=O)N1CCN(c2nc(=O)n(-c3c(C)ccnc3C(C)C)c3nc(-c4c(O)cccc4F)c(F)cc23)C(C)C1 (stereo not given)
viability, T/C (compound 0.1 µM): 95.8% [middle of 4 runs] | viability, T/C (compound 1 µM): 111% [middle of 4 runs] | viability, T/C (compound 10 µM): 92.7% [middle of 4 runs] | IC50 (curve of compound): > 10 µM

CC(=O)c1c(C)c2cnc(Nc3ccc(N4CCNCC4)cn3)nc2n(C2CCCC2)c1=O
viability, T/C (compound 0.001 µM): 93.6% [middle of 4 runs] | viability, T/C (compound 0.00316 µM): 89.5% [middle of 4 runs] | viability, T/C (compound 0.01 µM): 87.7% [middle of 4 runs] | viability, T/C (compound 0.0316 µM): 92.3% [middle of 4 runs] | IC50 (curve of compound): > 0.1 µM and 0.0566 µM

CC(C)NCC(C(=O)N1CCN(c2ncnc3c2C(C)CC3O)CC1)c1ccc(Cl)cc1 (stereo not given)
viability, T/C (compound 0.1 µM): 85.6% [middle of 4 runs] | viability, T/C (compound 0.316 µM): 86.1% [middle of 4 runs] | viability, T/C (compound 1 µM): 74.3% [middle of 4 runs] | IC50 (curve of compound): > 10 µM and 1.87 µM and 5.86 µM

CC(C)n1nc(-c2ccc3oc(N)nc3c2)c2c(N)ncnc21
viability, T/C (compound 0.000316 µM): 94.6% [middle of 4 runs] | viability, T/C (compound 0.001 µM): 105% [middle of 4 runs] | viability, T/C (compound 0.00316 µM): 106% [middle of 4 runs] | viability, T/C (compound 0.0316 µM): 79.1% [middle of 4 runs] | viability, T/C (compound 0.1 µM): 52.8% [middle of 4 runs] | IC50 (curve of compound): > 0.1 µM and 0.0905 µM

CC(Cn1ccc(-c2ccc(C#N)c(Cl)c2)n1)NC(=O)c1cc(C(C)O)[nH]n1 (stereo not given)
viability, T/C (compound 0.0316 µM): 90.6% [middle of 4 runs] | viability, T/C (compound 0.316 µM): 101% [middle of 4 runs] | IC50 (curve of compound): > 10 µM

CC(Nc1ccc2c(c1)OCCn1cc(N3C(=O)OCC3C(F)F)nc1-2)C(N)=O (stereo not given)
viability, T/C (compound 0.0316 µM): 91% [middle of 8 runs] | IC50 (compound alone, run of 04/24/2023): > 1 µM

CC(Nc1ncnc2nc[nH]c12)c1cc2cccc(Cl)c2c(=O)n1-c1ccccc1 (stereo not given)
viability, T/C (compound 0.0316 µM): 99% [middle of 8 runs] | viability, T/C (compound 10 µM): 80.4% [middle of 8 runs] | IC50 [1]: > 10 µM

CC1(C)CCC(CN2CCN(c3ccc(C(=O)NS(=O)(=O)c4ccc(NCC5CCOCC5)c([N+](=O)[O-])c4)c(Oc4cnc5[nH]ccc5c4)c3)CC2)=C(c2ccc(Cl)cc2)C1
viability, T/C (compound 0.0316 µM): 98.9% [middle of 4 runs] | viability, T/C (compound 0.1 µM): 88.2% [middle of 4 runs] | viability, T/C (compound 3.16 µM): 93.3% [middle of 4 runs]

CC1(C)CCC(Nc2ncc(C(F)(F)F)c(-c3c[nH]c4c(P(C)(C)=O)c(C#N)ccc34)n2)CN1 (stereo not given)
viability, T/C (compound 0.0316 µM): 43.3% [middle of 4 runs] | viability, T/C (compound 0.1 µM): 39.1% [middle of 4 runs] | viability, T/C (compound 0.316 µM): 34.6% [middle of 4 runs] | viability, T/C (compound 1 µM): 38.5% and 38.1% and 35.8% (2×) | viability, T/C (compound 3.16 µM): 35.1% [middle of 4 runs] | viability, T/C (compound 10 µM): 7.76% [middle of 4 runs] | IC50 (curve of compound): < 0.0316 µM

CCCS(=O)(=O)Nc1ccc(F)c(C(=O)c2c[nH]c3ncc(-c4ccc(Cl)cc4)cc23)c1F
viability, T/C (compound 0.0316 µM): 98.8% [middle of 4 runs] | viability, T/C (compound 0.1 µM): 111% [middle of 4 runs] | viability, T/C (compound 0.316 µM): 108% [middle of 4 runs] | viability, T/C (compound 3.16 µM): 110% [middle of 4 runs] | viability, T/C (compound 10 µM): 31% [middle of 4 runs] | IC50 (curve of compound): 7.38 µM [middle of 4 runs]

CCN1CCN(Cc2ccc(Nc3ncc(F)c(-c4cc(F)c5nc(C)n(C(C)C)c5c4)n3)nc2)CC1
viability, T/C (compound 0.01 µM): 89.4% [middle of 4 runs] | viability, T/C (compound 0.316 µM): 49.4% [middle of 4 runs] | IC50 (curve of compound): 269 nM [middle of 4 runs]

CNC(=O)c1ccc(N2C(=S)N(c3ccc(C#N)c(C(F)(F)F)c3)C(=O)C2(C)C)cc1F
viability, T/C (compound 0.0316 µM): 95.8% [middle of 4 runs] | viability, T/C (compound 0.1 µM): 97.6% [middle of 4 runs] | viability, T/C (compound 0.316 µM): 96.2% [middle of 4 runs] | viability, T/C (compound 3.16 µM): 101% [middle of 4 runs] | viability, T/C (compound 10 µM): 97.4% [middle of 4 runs] | IC50 (curve of compound): > 10 µM

COc1c(OCCCN2CCOCC2)ccc2c3n(c(=NC(=O)c4cnc(N)nc4)nc12)CCN3
viability, T/C (compound 0.00316 µM): 87.7% [middle of 8 runs] | viability, T/C (compound 0.01 µM): 93.9% [middle of 8 runs] | viability, T/C (compound 0.0316 µM): 82.8% [middle of 8 runs] | viability, T/C (compound 0.1 µM): 52.5% [middle of 8 runs] | viability, T/C (compound 0.316 µM): 38.6% [middle of 8 runs] | viability, T/C (compound 1 µM): 39% [middle of 8 runs] | IC50 [1]: 120 nM [middle of 8 runs]

C[C@@H](NC(=O)c1ncnc(N)c1Cl)c1ncc(C(=O)Nc2cc(C(F)(F)F)c(Cl)cn2)s1
viability, T/C (compound 0.0316 µM): 109% [middle of 4 runs] | viability, T/C (compound 10 µM): 83.3% [middle of 4 runs] | IC50 (curve of compound): > 10 µM

Cc1nc(NC(=O)N2CCCC2C(N)=O)sc1-c1ccnc(C(C)(C)C(F)(F)F)c1 (stereo not given)
viability, T/C (compound 1 µM): 72.2% [middle of 8 runs] | viability, T/C (compound 10 µM): 48.2% [middle of 8 runs]

Cn1cnc2c(F)c(Nc3ccc(Br)cc3Cl)c(C(=O)NOCCO)cc21
viability, T/C (compound 0.03 µM): 59% [middle of 4 runs] | viability, T/C (compound 0.0949 µM): 48.3% [middle of 4 runs] | viability, T/C (compound 0.3 µM): 33.4% [middle of 4 runs] | viability, T/C (compound 0.949 µM): 27.6% [middle of 4 runs] | viability, T/C (compound 3 µM): 20.4% [middle of 4 runs] | IC50 (curve of compound): 55.5 nM [middle of 4 runs]

Cn1ncc(Cl)c1-c1cc(C(=O)NC(CN)Cc2cccc(F)c2)sc1Cl (stereo not given)
viability, T/C (compound 0.1 µM): 84.4% [middle of 4 runs] | viability, T/C (compound 0.316 µM): 71.1% [middle of 4 runs] | viability, T/C (compound 1 µM): 60.5% [middle of 4 runs] | viability, T/C (compound 3.16 µM): 49.1% [middle of 4 runs] | IC50 (curve of compound): > 10 µM and 1.85 µM

Cn1nccc1Nc1nccc(-c2ccn(C(CO)c3ccc(Cl)c(F)c3)c(=O)c2)n1 (stereo not given)
viability, T/C (compound 0.0316 µM): 101% [middle of 4 runs] | viability, T/C (compound 0.316 µM): 68.3% [middle of 4 runs] | viability, T/C (compound 1 µM): 52.5% [middle of 4 runs] | viability, T/C (compound 3.16 µM): 43.4% [middle of 4 runs] | viability, T/C (compound 10 µM): 37% [middle of 4 runs] | IC50 (curve of compound): 1.06 µM [middle of 4 runs]

Cn1ncnc1[C@H]1c2n[nH]c(=O)c3cc(F)cc(c23)N[C@@H]1c1ccc(F)cc1
viability, T/C (compound 0.000316 µM): 91.7% [middle of 4 runs] | viability, T/C (compound 0.001 µM): 113% and 106% (2×) and 109% | viability, T/C (compound 0.01 µM): 101% [middle of 4 runs] | viability, T/C (compound 0.0316 µM): 94.7% [middle of 4 runs] | viability, T/C (compound 0.1 µM): 97.3% [middle of 4 runs] | IC50 (curve of compound): > 0.1 µM
